The results in this text go back to patent US20140107109A1, “AMINO-DIHYDROTHIAZINE AND AMINO-DIOXIDO DIHYDROTHIAZINE COMPOUNDS AS BETA-SECRETASE ANTAGONISTS AND METHODS OF USE” (Amgen Inc., priority 2012, published 2014).

Read-outs that look alike come from different tables or passages of the source.

Experiment [1] concerns the target Beta Secretase enzyme (BACE1) (Homo sapiens, UniProt P56817). The experiment can be described thus: In vitro enzymatic BACE FRET assay. It counts as biochemical. To be noted: read-out: BACE1 FRET assay IC50. The gist of the method:
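Readout: dequenched fluorescence (ex 488 nm/[…]) after neutralizing with Tris buffer. Reactions, begun by adding 50 nM quenched peptide substrate spanning the BACE cleavage site, were incubated one hour at pH 4.2 in 0.05 M acetate with 100 uM genapol and 10% final DMSO.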

The test system of experiment [2] is Aβ40 in conditioned medium of cells stably expressing Amyloid Precursor Protein (APP). The experiment can be described thus: In vitro BACE cell-based assay (HEK cell assay), Aβ40 sandwich ELISA. The gist of the method: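 Aβ40 in conditioned medium was quantified by time-resolved fluorescence sandwich ELISA (pAb40 capture 3 h at 4 °C, biotin-6E10 detection 2 h at 4 °C) after 24 h compound exposure of APP-expressing cells. Doses spanned 10 points from 100 μM or 10 μM top, 0.1% DMSO; IC50 was derived from percent of control.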
For orientation: An ELISA detects its analyte on a solid surface through an enzyme-linked reagent.

For a further experiment, the target named is T1, Cathepsin D (Cat D) (Homo sapiens, UniProt P07339).
T1 construct: Recombinant Cat D was expressed in CHO cells; made in house; host or cells: CHO cells
The experiment can be described thus: In vitro enzymatic Cathepsin D (Cat D) FRET assay. It counts as biochemical. To be noted: read-out: CatD IC50. Put shortly: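 FRET read-out: a fluorophore/quencher-labelled peptide substrate is cleaved by 9 nM Cat D (recombinant, CHO-expressed) following a one-hour preincubation with inhibitor dilutions in DMSO. Tris buffer added to neutralize pH ends the reaction before fluorescence measurement.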

[3] abbreviates: Homo sapiens, HEK293, average IC50, HEK cell assay.
Where [4] appears, read: Homo sapiens, HEK293, average IC50, cell assay.

Beta Secretase enzyme (BACE1), sequence (P56817 46-501): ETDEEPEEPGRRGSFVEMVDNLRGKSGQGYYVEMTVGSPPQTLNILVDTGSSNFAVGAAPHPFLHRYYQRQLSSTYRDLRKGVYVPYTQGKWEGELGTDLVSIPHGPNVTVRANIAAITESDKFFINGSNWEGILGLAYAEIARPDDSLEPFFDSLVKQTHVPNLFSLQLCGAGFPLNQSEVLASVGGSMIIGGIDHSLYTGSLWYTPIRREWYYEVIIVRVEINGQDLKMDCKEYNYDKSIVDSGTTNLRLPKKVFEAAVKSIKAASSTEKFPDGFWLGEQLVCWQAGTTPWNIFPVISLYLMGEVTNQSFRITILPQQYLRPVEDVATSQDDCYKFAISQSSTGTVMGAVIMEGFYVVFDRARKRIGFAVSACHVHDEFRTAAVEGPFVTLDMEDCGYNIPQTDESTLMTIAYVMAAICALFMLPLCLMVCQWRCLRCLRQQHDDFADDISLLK
T1 sequence (P07339 65-412, species assumed): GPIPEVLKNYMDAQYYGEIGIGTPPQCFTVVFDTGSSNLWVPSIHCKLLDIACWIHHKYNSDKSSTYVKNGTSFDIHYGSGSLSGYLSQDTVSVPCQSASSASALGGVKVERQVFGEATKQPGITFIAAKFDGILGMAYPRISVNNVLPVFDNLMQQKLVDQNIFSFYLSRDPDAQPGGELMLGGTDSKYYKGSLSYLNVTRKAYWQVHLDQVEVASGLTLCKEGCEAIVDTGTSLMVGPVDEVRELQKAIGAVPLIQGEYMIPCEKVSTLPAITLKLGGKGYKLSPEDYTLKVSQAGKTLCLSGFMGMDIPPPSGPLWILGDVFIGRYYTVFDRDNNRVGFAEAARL

As to “N-(3-((7R)-9-amino-7-(fluoromethyl)-5,5-dioxido-5-thia-8-azaspiro[3.5]non-8-en-7-yl)-4-fluorophenyl)-3-chloro-1,7-naphthyridin-8-amine, N-(3-((7S)-9-amino-7-(fluoromethyl)-5,5-dioxido-5-thia-8-azaspiro[3.5]non-8-en-7-yl)-4-fluorophenyl)-3-chloro-1,7-naphthyridin-8-amine [Example 243]”, the IC50 worked out at 0.00131 µM in experiment [1] (average IC50, enzyme assay); 0.0779 µM in experiment [2] (average IC50, cell assay); 363 µM on Cathepsin D (Cat D).

In the case of `CC1(C)C(N)=N[C@](C)(c2cc(NC(=O)c3cnc(OCC(F)F)cn3)ccc2F)CS1(=O)=O` [Example 314, N-(3-((3R)-5-amino-3,6,6-trimethyl-1,1-dioxido-3,6-dihydro-2H-1,4-thiazin-3-yl)-4-fluorophenyl)-5-(2,2-difluoroethoxy)-2-pyrazinecarboxamide], the half-inhibitory concentration (IC50) in experiment [1] (average IC50, enzyme assay) was determined as 0.00058 µM; in experiment [2] (setting [3]), 0.005 µM; at Cathepsin D (Cat D), 504 µM.

As to `CC1(C)C(N)=N[C@](CF)(c2cc(Nc3nncc4cc(Br)ccc34)ccc2F)CS1(=O)=O` [Example 449, N-(3-((3S)-5-amino-3-(fluoromethyl)-6,6-dimethyl-1,1-dioxido-3,6-dihydro-2H-1,4-thiazin-3-yl)-4-fluorophenyl)-6-bromo-1-phthalazinamine], the IC50 was 0.0302 µM in experiment [1] (average IC50, enzyme assay); 0.159 µM in experiment [2] (setting [4]); 375 µM at Cathepsin D (Cat D).

For `CC1(C)C(N)=N[C@](CF)(c2cc(N)ccc2F)CS1(=O)=O` [Example 456, (5S)-5-(5-amino-2-fluorophenyl)-5-(fluoromethyl)-2,2-dimethyl-5,6-dihydro-2H-1,4-thiazin-3-amine 1,1-dioxide], the half-maximal inhibitory concentration (IC50) in experiment [1] (average IC50) was 2.53 µM; in experiment [2] (Homo sapiens, HEK293, average IC50, HEK cells), above 15.6 µM; at Cathepsin D (Cat D), 228 µM.

As to `CC1(C)C(N)=N[C@@](C)(c2cc(NC(=O)c3ccc(Cl)cn3)cc(F)c2F)CS1(=O)=O` [Example 39, (S)—N-(3-(5-amino-3,6,6-trimethyl-1,1-dioxido-3,6-dihydro-2H-1,4-thiazin-3-yl)-4,5-difluorophenyl)-5-chloropicolinamide], the IC50 in experiment [1] is 1.18 µM; in experiment [2] (Homo sapiens, HEK293, Aβ40, 24 h incubation), 3.27 µM; on Cathepsin D (Cat D) it was 225 µM.

On to `CC(C)c1c(C(=O)Nc2ccc(F)c([C@]3(CF)CS(=O)(=O)C(C)(C)C(N)=N3)c2)nc2ccc(Cl)cn12` [Example 395, N-(3-((3S)-5-amino-3-(fluoromethyl)-6,6-dimethyl-1,1-dioxido-3,6-dihydro-2H-1,4-thiazin-3-yl)-4-fluorophenyl)-6-chloro-3-(1-methylethyl)imidazo[1,2-a]pyridine-2-carboxamide], for which the IC50 in experiment [1] was 0.0377 µM; in experiment [2] (Homo sapiens, HEK293), 0.125 µM; at Cathepsin D (Cat D) it was 822 µM.

Regarding `CC1(C)C(N)=N[C@](C)(c2cc(Nc3cc(Cl)cc4cc(Cl)cnc34)ccc2F)CS1(=O)=O` [Example 446, N-(3-((3R)-5-amino-3,6,6-trimethyl-1,1-dioxido-3,6-dihydro-2H-1,4-thiazin-3-yl)-4-fluorophenyl)-3,6-dichloro-8-quinolinamine], the IC50 in experiment [1] (average IC50, enzyme assay) came out at 0.0022 µM; in experiment [2] (setting [4]), 0.263 µM; at Cathepsin D (Cat D), 13.9 µM.

On to `CC1(C)C(N)=N[C@](C)(c2cc(NC(=O)c3ccc(Cl)cc3)ccc2F)CS1(=O)=O` [Example 212, N-(3-((3R)-5-amino-3,6,6-trimethyl-1,1-dioxido-3,6-dihydro-2H-1,4-thiazin-3-yl)-4-fluorophenyl)-4-chlorobenzamide], for which the IC50 in experiment [1] (average IC50, enzyme assay) was 0.0102 µM; in experiment [2] (setting [4]), 0.0233 µM; at Cathepsin D (Cat D), 317 µM.

For `Cc1cc(OC(F)F)cnc1C(=O)Nc1ccc(F)c([C@@]2(C)N=C(N)C(C)(C)S(=O)(=O)C23CC3)c1` [Example 341, N-(3-((8R)-6-amino-5,5,8-trimethyl-4,4-dioxido-4-thia-7-azaspiro[2.5]oct-6-en-8-yl)-4-fluorophenyl)-5-(difluoromethoxy)-3-methyl-2-pyridinecarboxamide], the IC50 in experiment [1] (average IC50, enzyme assay) was found to be 0.00599 µM; in experiment [2] (setting [3]), 0.0024 µM; on Cathepsin D (Cat D) it was 9.4 µM.

`CC1(C)C(N)=N[C@](C)(c2cc(Oc3nccc(C(F)(F)F)c3C#N)ccc2F)CS1(=O)=O` [Example 312, 2-(3-((3R)-5-amino-3,6,6-trimethyl-1,1-dioxido-3,6-dihydro-2H-1,4-thiazin-3-yl)-4-fluorophenoxy)-4-(trifluoromethyl)-3-pyridinecarbonitrile]: the IC50 in experiment [1] (average IC50, enzyme assay) is 2.89 µM; in experiment [2] (setting [3]) it was 1.59 µM; at Cathepsin D (Cat D), 771 µM.

In the case of `C[C@@]1(c2cc(Nc3nccc4cc(C#N)cnc34)cnc2F)CS(=O)(=O)C2(CCC2)C(N)=N1` [Example 386, 8-((5-((7R)-9-amino-7-methyl-5,5-dioxido-5-thia-8-azaspiro[3.5]non-8-en-7-yl)-6-fluoro-3-pyridinyl)amino)-1,7-naphthyridine-3-carbonitrile], the IC50 amounted to 0.00409 µM in experiment [1]; 0.0141 µM in experiment [2] (Homo sapiens, HEK293); 54.7 µM on Cathepsin D (Cat D).

With `C[C@@]1(c2cc(NC(=O)c3ccc(Cl)cn3)ccc2F)CS(=O)(=O)C2(CC(F)(F)C2)C(N)=N1` [Example 120, (R)—N-(3-(9-amino-2,2-difluoro-7-methyl-5,5-dioxido-5-thia-8-azaspiro[3.5]non-8-en-7-yl)-4-fluorophenyl)-5-chloropicolinamide], the concentration for half-maximal inhibition (IC50) in experiment [1] came out at 0.0013 µM; in experiment [2] (Homo sapiens, HEK293), 0.0272 µM; on Cathepsin D (Cat D), 148 µM.

With `CC1(C)C(N)=N[C@](C)(c2cc(Oc3ncccc3F)ccc2F)CS1(=O)=O` [Example 274, (5R)-5-(2-fluoro-5-((3-fluoro-2-pyridinyl)oxy)phenyl)-2,2,5-trimethyl-5,6-dihydro-2H-1,4-thiazin-3-amine 1,1-dioxide], the IC50 came out at 0.0374 µM in experiment [1] (average IC50, enzyme assay); 0.0348 µM in experiment [2] (setting [4]); 153 µM at Cathepsin D (Cat D).

Regarding `CC1(C)C(N)=N[C@](C)(c2cc(Oc3cc(-c4ccccc4)ccn3)ccc2F)CS1(=O)=O` [Example 289, (5R)-5-(2-fluoro-5-((4-phenyl-2-pyridinyl)oxy)phenyl)-2,2,5-trimethyl-5,6-dihydro-2H-1,4-thiazin-3-amine 1,1-dioxide], the IC50 in experiment [1] (average IC50, enzyme assay) came out at 0.0509 µM; in experiment [2] (setting [4]) it was 0.568 µM; at Cathepsin D (Cat D), 92.7 µM.

For the compound `CC1(C)C(N)=N[C@](CF)(c2cc(Nc3ncc(F)c4cc(Cl)cnc34)ccc2F)CS1(=O)=O` [Example 233, N-(3-((3S)-5-amino-3-(fluoromethyl)-6,6-dimethyl-1,1-dioxido-3,6-dihydro-2H-1,4-thiazin-3-yl)-4-fluorophenyl)-3-chloro-5-fluoro-1,7-naphthyridin-8-amine], the IC50 turned out to be 0.00031 µM in experiment [1] (average IC50, enzyme assay); 0.0845 µM in experiment [2] (setting [4]); 143 µM on Cathepsin D (Cat D).

Take `CC1(C)C(N)=N[C@](C)(c2cc(Nc3nccc4cc(OCC#N)cnc34)ccc2F)CS1(=O)=O` [Example 420, ((8-((3-((3R)-5-amino-3,6,6-trimethyl-1,1-dioxido-3,6-dihydro-2H-1,4-thiazin-3-yl)-4-fluorophenyl)amino)-1,7-naphthyridin-3-yl)oxy)acetonitrile]: the half-inhibitory concentration (IC50) was 0.00485 µM in experiment [1] (average IC50, enzyme assay); 0.0054 µM in experiment [2] (setting [4]); 1260 µM at Cathepsin D (Cat D).

As to `CC1(C)C(N)=N[C@](C)(c2cc(Oc3ncccc3N)ccc2F)CS1(=O)=O` [Example 273, (5R)-5-(5-((3-amino-2-pyridinyl)oxy)-2-fluorophenyl)-2,2,5-trimethyl-5,6-dihydro-2H-1,4-thiazin-3-amine 1,1-dioxide], the concentration for half-maximal inhibition (IC50) in experiment [1] (average IC50, enzyme assay) is 1.5 µM; in experiment [2] (setting [4]), 1.01 µM; on Cathepsin D (Cat D), above 400 µM.

Consider `CCOc1cnc2c(Nc3ccc(F)c([C@]4(CF)CS(=O)(=O)C(C)(C)C(N)=N4)c3)ncc(F)c2c1` [Example 435, N-(3-((3S)-5-amino-3-(fluoromethyl)-6,6-dimethyl-1,1-dioxido-3,6-dihydro-2H-1,4-thiazin-3-yl)-4-fluorophenyl)-3-ethoxy-5-fluoro-1,7-naphthyridin-8-amine], for which the 50% inhibitory concentration (IC50) in experiment [1] (average IC50, enzyme assay) is 0.0016 µM; in experiment [2] (setting [4]) it was 0.049 µM; on Cathepsin D (Cat D) it was above 400 µM.

For `N#Cc1cnc(C(=O)Nc2ccc(F)c([C@]3(CF)CS(=O)(=O)C4(CCC4)C(N)=N3)c2)c(Cl)c1` [Example 372, N-(3-((7S)-9-amino-7-(fluoromethyl)-5,5-dioxido-5-thia-8-azaspiro[3.5]non-8-en-7-yl)-4-fluorophenyl)-3-chloro-5-cyano-2-pyridinecarboxamide], the IC50 in experiment [1] worked out at 0.00072 µM; in experiment [2] (Homo sapiens, HEK293), 0.0071 µM; on Cathepsin D (Cat D), 367 µM.

For `Cc1cnc(C(=O)Nc2ccc(F)c([C@]3(C)CS(=O)(=O)C(C)(C)C(N)=N3)c2)cn1` [Example 110, (R)—N-(3-(5-amino-3,6,6-trimethyl-1,1-dioxido-3,6-dihydro-2H-1,4-thiazin-3-yl)-4-fluorophenyl)-5-methylpyrazine-2-carboxamide], the half-maximal inhibitory concentration (IC50) in experiment [1] worked out at 0.0202 µM; in experiment [2] (Homo sapiens, HEK293) it was 0.0144 µM; on Cathepsin D (Cat D) it was 1840 µM.

What is called IC50 is the concentration that gives 50% inhibition.
